The values that follow come from patent US10953037B2, “Chondroitin sulfate derivative and agent for treating bladder diseases” (priority 2015, dated 2021).

Assay [1] has as its system hydrochloric acid-induced micturition model rats. Conditions: […] (w/v %), 0.2 mL single intravesical administration two days after HCl, cystometry seven days after HCl, vs. control (saline); for Intercontraction interval: FIG. 2. On the procedure:
Chondroitin sulfate derivatives prepared in compliance with the methods of Examples 3, 4 and 5 were dissolved in phosphate-buffered saline to prepare the test substances indicated below.
(§1) Two days after continuous instillation of hydrochloric acid, 0.2 mL of each test substance were administered transurethrally using a catheter (PE50) and retained in the bladder for 30 minutes under anesthesia.
Intercontraction interval and single voided volume were measured after changes in intravesical pressure had stabilized.

For assay [2] the test system is unchanged. Put plainly: Test Example B1: urinary function, rat hydrochloric acid-induced micturition model (steroid comparison). Conditions: […] (w/v %), 0.2 mL single intravesical administration two days after HCl, cystometry seven days after HCl, vs. control (saline); for Intercontraction interval: FIG. 1.
Assay [3] shares this test system. Put plainly: Test Example B3: urinary function, rat hydrochloric acid-induced micturition model (comparison of conjugates and mixture). The class given is in vivo. Particulars: 3% (w/v %) conjugate or mixture of 3% CS+[…] BTM, 0.2 mL single intravesical administration, cystometry seven days after HCl, vs. control. How it is done: A chondroitin sulfate derivative prepared in compliance with the method of Example 2 was dissolved in phosphate-buffered saline to prepare the test substances indicated below.
as §1

Read-outs that look alike come from different tables or passages of the source.

As for “CS introduced with 21-Glycyl-Triamcinolone Acetonide [CS-Gly-TA]”, in assay [1], the Single voided volume result is listed as “significant increase in single voided volume” and the Intercontraction interval entry is listed as “significantly increased intercontraction interval”.

On to “CS introduced with 21-Isoleucyl-Triamcinolone Acetonide [CS-Ile-TA]”, for which, in assay [1], the Single voided volume result is given as “significant increase in single voided volume” and the Intercontraction interval result is given as “significantly increased intercontraction interval”.

Turning to “CS introduced with 21-β-Alanyl-Betamethasone [CS-βAla-BTM]”, the Single voided volume result in assay [2] and in assay [3] was “significant increase in single voided volume” each time. Besides, the Intercontraction interval entry in assay [2] and in assay [3] (FIG. 4) was “significantly increased intercontraction interval” each time.

With “CS introduced with 21-β-Alanyl-Prednisolone [CS-βAla-PRED]”, in assay [2], the Single voided volume entry is “significant increase in single voided volume” and the Intercontraction interval entry is “significantly increased intercontraction interval”.

Regarding “CS introduced with 21-β-Alanyl-Triamcinolone Acetonide [CS-βAla-TA]”, in assay [2], the Single voided volume result is on record as “significant increase in single voided volume” and the Intercontraction interval result was “significantly increased intercontraction interval”. Besides, in assay [1], the Single voided volume entry is “significant increase in single voided volume” and the Intercontraction interval entry is listed as “significantly increased intercontraction interval”.
